Test results from patent US20030068289A1, “Skin treatment” (Unilever Home & Personal Care USA, Division of Conopco, Inc., priority 2001, published 2003).

Legend:
[1] = tested on: scalp stratum corneum
Experimental: (§1) Panellists consisting of males and females were used. Their scalps were assessed to confirm they were suffering from dandruff. The scalps were divided into two, from the centre of the forehead to the nape of the neck. Four sites of similar scalp condition, two on each side of the head, were identified.
(§2) Panellists were assessed for scalp condition then suitable subjects given a placebo shampoo (ie. non anti-dandruff) to use for approximately 5 weeks. They were then asked to return, having not washed their hair or applied products to it for 48 hours. They were re-assessed then tape stripped at one site on each side o: the head ([…]). They then returned to be salon washed, by salon operators, 3 times their week with ½ of each head washed in the placebo and the other ½ in a shampoo containing 1% ZnPTO. After approximately 4 weeks, they were assessed and tape stripped again an adjacent sites to the first two.
Samples were collected by parting the hair and lightly swabbing with an alcohol swab to remove excess sebum. A total of eight sequential tapestrips were taken from each site. These were stored frozen until required for analysis.
The corneocytes were removed from the tapes by sonicating in methanol and the free lipid was extracted from them in a chloroform/methanol mixture, which was then dried under nitrogen. The residue was reconstituted in chloroform arid the lipid species separated on amino-propyl bonded silica gel columns.
The lipids were then separated and quantified using HPTLC. The lipids analysed were total fatty acids, cholesterol, triglycerides and ceramides. The ceramides were separated into the individual ceramides that are normally seen. The covalently bound lipids were not analysed here. The protein content of the samples were measured and the lipid levels expressed as ng lipid per μg protein. The individual ceramides were also expressed as relative % of total ceramides.

[2] = tested on: dandruff; details: 7 subjects; also decreased for placebo
Experimental: as §1, §2

[3] = after vs before, significant only after the ZnPTO treatment

Substance: zinc pyrithione [ZnPTO]
- Relative % lipids in scalp stratum corneum: Cholesterol ([1]; After ZnPTO, approx 4 weeks, spread 1.4 in row below, Before ZnPTO 11.6 ± 4.5): 8.8%
- Relative % lipids in scalp stratum corneum: Ceramides ([1]; After ZnPTO, approx 4 weeks, spread 3.8 in row below, Before ZnPTO 31.0 ± 8.1): 16.4%
- Relative % lipids in scalp stratum corneum: Fatty Acids ([1]; After ZnPTO, approx 4 weeks, spread 16.6 in row below, Before ZnPTO 36.0 ± 12.5): 31.8%
- Relative % lipids in scalp stratum corneum: Triglycerides ([1]; After ZnPTO, approx 4 weeks, spread 19.2 in row below, Before ZnPTO 21.4 ± 4.8): 43.0%
- Mass level of lipid: Fatty Acids ([1]; After ZnPTO: shampoo containing 1% ZnPTO, 3 washes per week, approx 4 weeks, half-head, spread 748.6 in row below, Before ZnPTO 364.9 ± 231.9): 1518.1 ng lipid per μg protein
- Mass level of lipid: Cholesterol ([1]; After ZnPTO: shampoo containing 1% ZnPTO, approx 4 weeks, spread 221.8 in row below, Before ZnPTO 108.9 ± 44.3): 478.3 ng lipid per μg protein
- Mass level of lipid: Ceramides ([1]; After ZnPTO: shampoo containing 1% ZnPTO, approx 4 weeks, spread 243.9 in row below, Before ZnPTO 284.3 ± 62.4): 841.5 ng lipid per μg protein
- Mass level of lipid: Triglycerides ([1]; After ZnPTO: shampoo containing 1% ZnPTO, approx 4 weeks, spread 1911.2 in row below, Before ZnPTO 208.5 ± 77.1): 2539.7 ng lipid per μg protein
- Mass level of lipid: Total Lipid ([1]; After ZnPTO: shampoo containing 1% ZnPTO, approx 4 weeks, spread 2056.0 in row below, Before ZnPTO 966.6 ± 282.5): 5377.6 ng lipid per μg protein
- Ceramide 6i as % of total ceramides ([1]; After ZnPTO, spread 2.0 in row below, Before ZnPTO 9.2 ± 1.1): 8.0%
- Ceramide 6ii as % of total ceramides ([1]; After ZnPTO, spread 2.1 in row below, Before ZnPTO 13.8 ± 2.1): 8.0%
- Ceramide 3a as % of total ceramides ([1]; After ZnPTO, spread 2.8 in row below, Before ZnPTO 12.4 ± 1.7): 19.2%
- Ceramide 3 as % of total ceramides ([1]; After ZnPTO, spread 4.0 in row below, Before ZnPTO 11.8 ± 3.9): 5.9%
- Ceramide 1 as % of total ceramides ([1]; After ZnPTO, spread 5.3 in row below, Before ZnPTO 11.3 ± 4.1): 14.6%
- Ceramide 2 as % of total ceramides ([1]; After ZnPTO, spread 5.4 in row below, Before ZnPTO 19.4 ± 4.5): 22.3%
- Ceramide 4/5 as % of total ceramides ([1]; After ZnPTO, spread 5.9 in row below, Before ZnPTO 22.2 ± 3.0): 22.1%
- Relative composition of the samples after treatment, placebo vs ZnPTO ([1]; after treatment): no significant differences
- All the lipids measured, mass levels after ZnPTO treatment compared with before treatment ([1]; after vs before treatment): significantly increased
- Change in relative % cholesterol with treatment ([1]; after vs before treatment): do not change
- Change in relative % fatty acid with treatment ([1]; after vs before treatment): do not change
- Change in relative % ceramide after treatment ([1]; after vs before treatment, also after placebo): significantly decreases
- Change in % triglyceride after treatment ([1]; after vs before treatment, significant for ZnPTO): increase in % triglyceride, which is significant for ZnPTO
- Change in relative % ceramide 6ii after treatment ([1]; after vs before, after both treatments): statistically significant decrease
- Change in relative % ceramide 3a after treatment [1, 3]: increase in ceramide 3a
- Change in relative % ceramide 3 after treatment [1, 3]: decrease in ceramide 3
- Level of ceramide, side treated with ZnPTO vs side treated with placebo ([1]; sites sampled after treatment): significantly higher
- Level of cholesterol, side treated with ZnPTO vs side treated with placebo ([1]; sites sampled after treatment): significantly higher
- Mean dandruff scores after treatment compared with before treatment [2]: decreased
